Measurements taken from article PMC10855388, “Small-Molecule-Directed Endogenous Regeneration of Visual Function in a Mammalian Retinal Degeneration Model” (International Journal of Molecular Sciences, 2024).

Assays:
Assay in all cases: KinaseProfiler in vitro kinase panel ([…] human kinases), single concentration […]
Type in all cases: biochemical
PKA = target: T1, PKA (Homo sapiens, UniProt P17612)
T1 construct: gene PRKACA

ROCK-I = target: T2, ROCK-I (Homo sapiens, UniProt Q13464)
T2 construct: gene ROCK1

PKG1α = target: T3, PKG1α (Homo sapiens, UniProt Q13976)
T3 construct: gene PRKG1
T3 sequence (Q13976 2-671): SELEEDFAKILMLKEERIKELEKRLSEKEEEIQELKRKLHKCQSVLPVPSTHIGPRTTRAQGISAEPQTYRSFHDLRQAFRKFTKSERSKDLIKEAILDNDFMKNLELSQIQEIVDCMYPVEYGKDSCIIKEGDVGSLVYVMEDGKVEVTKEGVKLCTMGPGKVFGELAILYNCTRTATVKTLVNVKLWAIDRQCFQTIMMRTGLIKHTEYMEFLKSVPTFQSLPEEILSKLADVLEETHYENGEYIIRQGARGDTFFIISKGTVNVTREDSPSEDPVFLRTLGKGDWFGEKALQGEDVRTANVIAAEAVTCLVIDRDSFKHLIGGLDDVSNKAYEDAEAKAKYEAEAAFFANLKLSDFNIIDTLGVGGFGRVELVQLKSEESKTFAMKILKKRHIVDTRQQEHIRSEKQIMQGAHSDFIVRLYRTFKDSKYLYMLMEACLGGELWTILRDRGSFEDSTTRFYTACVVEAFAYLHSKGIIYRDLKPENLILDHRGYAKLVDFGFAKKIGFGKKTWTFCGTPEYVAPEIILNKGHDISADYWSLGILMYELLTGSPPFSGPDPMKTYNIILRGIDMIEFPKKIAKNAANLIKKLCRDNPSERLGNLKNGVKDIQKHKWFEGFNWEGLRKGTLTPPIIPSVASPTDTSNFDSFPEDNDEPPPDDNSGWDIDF

p70S6K = target: T4, p70S6K (Homo sapiens, UniProt P23443)
T4 construct: gene RPS6KB1

Measured: inhibition at 5 µM

T4 sequence (P23443 whole entry): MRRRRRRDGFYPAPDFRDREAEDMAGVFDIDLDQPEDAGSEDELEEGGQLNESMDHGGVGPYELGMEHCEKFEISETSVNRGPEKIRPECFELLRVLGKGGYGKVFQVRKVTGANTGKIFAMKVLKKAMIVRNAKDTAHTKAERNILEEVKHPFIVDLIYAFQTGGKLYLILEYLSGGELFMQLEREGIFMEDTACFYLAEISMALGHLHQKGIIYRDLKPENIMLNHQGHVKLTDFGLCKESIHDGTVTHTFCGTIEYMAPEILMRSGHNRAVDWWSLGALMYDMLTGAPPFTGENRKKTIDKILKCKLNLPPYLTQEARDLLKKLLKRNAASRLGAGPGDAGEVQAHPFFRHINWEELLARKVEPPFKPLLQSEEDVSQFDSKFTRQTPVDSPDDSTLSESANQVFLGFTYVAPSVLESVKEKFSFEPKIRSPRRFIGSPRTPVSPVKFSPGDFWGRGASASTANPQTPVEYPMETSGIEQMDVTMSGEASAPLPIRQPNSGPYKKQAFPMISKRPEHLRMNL
T2 sequence (Q13464 2-1354): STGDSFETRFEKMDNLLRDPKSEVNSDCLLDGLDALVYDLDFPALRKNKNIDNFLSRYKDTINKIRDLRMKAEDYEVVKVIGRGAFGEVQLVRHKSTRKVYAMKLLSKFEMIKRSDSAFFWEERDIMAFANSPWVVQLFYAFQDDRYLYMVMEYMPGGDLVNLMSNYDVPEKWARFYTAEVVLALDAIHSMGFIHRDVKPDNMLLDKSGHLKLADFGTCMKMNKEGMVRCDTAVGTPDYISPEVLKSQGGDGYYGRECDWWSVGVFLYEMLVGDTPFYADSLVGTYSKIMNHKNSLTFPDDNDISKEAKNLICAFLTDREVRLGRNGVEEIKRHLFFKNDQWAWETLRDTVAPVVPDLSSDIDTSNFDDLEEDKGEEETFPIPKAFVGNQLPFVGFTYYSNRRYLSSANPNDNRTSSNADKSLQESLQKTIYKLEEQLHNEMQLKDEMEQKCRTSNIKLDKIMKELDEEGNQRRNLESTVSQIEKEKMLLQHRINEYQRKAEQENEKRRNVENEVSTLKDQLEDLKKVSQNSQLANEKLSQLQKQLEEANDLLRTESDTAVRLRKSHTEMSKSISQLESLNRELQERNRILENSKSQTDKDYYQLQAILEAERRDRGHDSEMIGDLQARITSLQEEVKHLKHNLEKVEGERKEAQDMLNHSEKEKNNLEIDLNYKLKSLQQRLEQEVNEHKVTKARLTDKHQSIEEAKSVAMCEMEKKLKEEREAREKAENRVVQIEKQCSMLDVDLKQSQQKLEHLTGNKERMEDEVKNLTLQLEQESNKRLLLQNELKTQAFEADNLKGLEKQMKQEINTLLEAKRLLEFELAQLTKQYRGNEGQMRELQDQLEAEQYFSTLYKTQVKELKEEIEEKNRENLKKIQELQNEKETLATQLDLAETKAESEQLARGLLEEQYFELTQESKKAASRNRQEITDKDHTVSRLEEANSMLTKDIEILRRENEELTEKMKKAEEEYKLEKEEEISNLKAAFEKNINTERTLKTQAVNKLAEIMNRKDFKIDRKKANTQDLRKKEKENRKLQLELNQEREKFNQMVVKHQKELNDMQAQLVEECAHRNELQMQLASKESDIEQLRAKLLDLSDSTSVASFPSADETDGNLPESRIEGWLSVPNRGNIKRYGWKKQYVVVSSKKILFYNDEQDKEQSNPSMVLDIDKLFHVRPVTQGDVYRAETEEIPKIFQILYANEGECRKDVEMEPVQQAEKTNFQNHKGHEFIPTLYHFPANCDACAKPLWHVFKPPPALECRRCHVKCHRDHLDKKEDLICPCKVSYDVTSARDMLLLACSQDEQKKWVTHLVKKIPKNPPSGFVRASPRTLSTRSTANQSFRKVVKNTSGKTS

COc1cc(NC(=O)C2COc3ccccc3C2)ccc1-c1cnco1 (stereo not shown) [CompA, CompoundA]
> 75%: all assays above
